The values that follow come from US4351836A, “1,2,3,4,4a,5,10,10a-Octahydro-5,10-ortho-benzenobenz[g]isoquinolines and antidepressant use thereof” (E. I. Du Pont de Nemours and Company, priority 1980, dated 1982).

Where a name gives a salt, the structure may show the parent alone. Read-outs that look alike come from different tables or passages of the source.

Series [1] has as its system tetrabenazine-induced sedation and depression in mice. Briefly: Antagonism of tetrabenazine-induced depression in mice, orally. The series is classed as in vivo, female white mice (Carworth CF1 S). The following applies: oral, 1 hr post drug, 30 minutes after tetrabenazine 32 mg/kg intraperitoneally, female mice; for ED50: Mus musculus, read-out: ED50 for prevention of exploratory loss.

For series [2] the test system is unchanged. Described as above. The series is classed as in vivo, female white mice (Carworth CF1 S). The following applies: oral, 1 hr post drug, 30 minutes after tetrabenazine 32 mg/kg intraperitoneally, female mice; for ED50: Mus musculus, read-out: ED50 for prevention of ptosis. The protocol:
Relief from ptosis was recorded when exactly two seconds after placing the mouse facing the observer, lid closure was less than 50% in both eyes.

For series [3] the following is noted: background statement, no test described; cited from earlier work.

A word on the ED50: it is the midpoint of the dose-response relation. For `CC(O)CCN1CCC2C3c4ccccc4C(c4ccccc43)C2C1` (centres unmarked), the values for the median effective dose (ED50) in series [1] and in series [2] were 5.6 mg/kg and 4.9 mg/kg, respectively. Take `c1ccc(OCCN2CCC3C4c5ccccc5C(c5ccccc54)C3C2)cc1` (centres unmarked): the values for the median effective dose (ED50) in series [1] and in series [2] were 27 mg/kg and 10.8 mg/kg, respectively. With `CCOC(=O)CCN1CCC2C3c4ccccc4C(c4ccccc43)C2C1` (racemic) [(±)1,2,3,4,4a,5,10,10a-octahydro-5,10-o-benzenobenz[g]isoquinoline-2-propionic acid ethyl ester], the figures for the ED50 in series [1] and in series [2] were 20 mg/kg and 8.1 mg/kg, respectively. The matching figures for `CCCCN1CCC2C3c4ccccc4C(c4ccccc43)C2C1` (racemic) [(±)2-(1-butyl)-1,2,3,4,4a,5,10,10a-Octahydro-5,10-o-benzenobenz[g]isoquinoline Maleate]: 19 mg/kg and 11.2 mg/kg. The matching figures for `c1ccc(CCN2CCC3C4c5ccccc5C(c5ccccc54)C3C2)cc1` (racemic) [R=CH2 CH2 C6 H5, R1=H, R2=H, R3=H, R4=H, (±)1,2,3,4,4a,5,10,10a-octahydro-2-phenethyl-5,10-o-benzenobenz[g]isoquinoline, hydrochloride hemihydrate]: 13.6 mg/kg and 11.8 mg/kg. The like results for `CC(=O)CCN1CCC2C3c4ccccc4C(c4ccccc43)C2C1` (racemic) [R=CH2 CH2 COCH3, R1=H, R2=H, R3=H, R4=H, (±)4-(1,2,3,4,4a,5,10,10a-Octahydro-5,10-o-benzenobenz[g]isoquinoline-2-yl)-2-butanone Maleate] were, in that order, 4.4 mg/kg and 2.1 mg/kg. Take `O=C(O)CCN1CCC2C3c4ccccc4C(c4ccccc43)C2C1` (racemic) [R=CH2 CH2 COOH, R1=H, R2=H, R3=H, R4=H, (±)1,2,3,4,4a,5,10,10a-Octahydro-5,10-o-benzenobenz[g]isoquinoline-2-propionic Acid Hydrochloride]: the ED50 in series [1] turned out to be 27 mg/kg; in series [2], 15 mg/kg. The matching figures for `c1ccc(C(CN2CCC3C4c5ccccc5C(c5ccccc54)C3C2)c2ccccc2)cc1` (racemic) [R=CH2 CH(C6 H5)2, R1=H, R2=H, R3=H, R4=H, (±)1,2,3,4,4a,5,10,10a-octahydro-2-(2,2-diphenylethyl)-5,10-o-benzenobenz[g]isoquinoline hydrochloride]: 47 mg/kg and 12 mg/kg. Take `CN1CCC2C3c4ccccc4C(c4ccccc43)C2C1` (racemic) [R=CH3, R1=H, R2=H, R3=H, R4=H, (±)1,2,3,4,4a,5,10,10a-Octrahydro-2-methyl-5,10-o-benzenobenz[g]isoquinoline Hydrochloride]: the values for the ED50 in series [1] and in series [2] were 6 mg/kg and 1 mg/kg, respectively.

`CCOC(=O)N1CCC2C3c4ccccc4C(c4ccccc43)C2C1` (racemic) [R=COOC2 H5, R1=H, R2=H, R3=H, R4=H, (±)1,2,3,4,4a,5,10,10a-Octahydro-5,10-o-benzenobenz[g]isoquinoline-2-carboxylic Acid, Ethyl Ester]: the ED50 in series [1] worked out at 5.4 mg/kg; in series [2], 2.1 mg/kg. The like results for `c1ccc2c(c1)C1c3ccccc3C2C2CNCCC12` (racemic) [R=H, R1=H, R2=H, R3=H, R4=H, (±)1,2,3,4,4a,5,10,10a-Octahydro-5,10-o-benzenobenz[g]isoquinoline Hydrochloride] were, in that order, 1.5 mg/kg and 0.41 mg/kg.

Consider `CN(C)CCC=C1c2ccccc2CCc2ccccc21` [Amitriptyline, reference compound], for which the ED50 in series [1] is 1.2 mg/kg; in series [2], 1 mg/kg.

On to `CN(C)CCCN1c2ccccc2CCc2ccccc21` [Imipramine], for which the side effects entry in series [3] is “may cause blurred vision, dryness of mouth, constipation, urinary retention, orthostatic hypotension, respiration depression, myocardial infarction and congestive heart failure”. On to “(±)1,2,3,4,4a,5,10,10a-octahydro-5-(or: -10)-methyl-5,10-o-benzobenz[g]isoquinoline hydrochloride [R=H, R1=CH3 (H), R2=H(CH3), R3=H, R4=H]”, for which the “ED50 for prevention of exploratory loss” value in series [1] is 38 mg/kg. For the same molecule, the “ED50 for prevention of ptosis” value in series [2] was 22 mg/kg. Turning to “(±)1,2,3,4,4a,5,10,10a-octahydro-7-(or: -8-)methyl-5,10-o-benzenobenz[g]isoquinoline hydrochloride [R=H, R1=H, R2=H, R3=7 or 8-CH3, R4=H]”, the “ED50 for prevention of exploratory loss” value in series [1] is reported as 4.8 mg/kg. Also, the “ED50 for prevention of ptosis” value in series [2] is on record as “.94 mg/kg”. The like results for “(±)1,2,3,4,4a,-5,10,10a-octahydro-2,5-dimethyl-5,10-o-benzenobenz[g]isoquinoline or (±)1,2,3,4,4a,5,10,10a-octahydro-2,10-dimethyl-5,10-o-benzenobenz[g]isoquinoline [R=CH3, R1=CH3 (H), R2=H(CH3), R3=H, R4=H]” were, in that order, 27 mg/kg and 21 mg/kg. On to “(±)2-(1-adamantylmethyl)-1,2,3,4,4a,5,10,10a-octahydro-5,10-o-benzenobenz[g]isoquinoline, hydrochloride hemihydrate [R=1-adamantyl, R1=H, R2=H, R3=H, R4=H]”, for which the “ED50 for prevention of exploratory loss” value in series [1] came out at 41 mg/kg. Also, the “ED50 for prevention of ptosis” value in series [2] came out at 24 mg/kg. With “(±)6,10-dichloro-1,2,3,4,4a,5,10,10a-octahydro-2-methyl-5,10-o-benzenobenz[g]isoquinoline hydrochloride [R=CH3, R1=H, R2=H, R3=6-Cl, R4=10-Cl]”, the “ED50 for prevention of exploratory loss” value in series [1] was 22 mg/kg. The “ED50 for prevention of ptosis” value in series [2] is recorded as 12.2 mg/kg.

Regarding “(±)6-(or: -9-)-chloro-1,2,3,4,4a,5,10,10a-octahydro-2-methyl-5,10-o-benzenobenz[g]isoquinoline hydrochloride [R=CH3, R1=H, R2=H, R3=6 or 9-Cl, R4=H]”, in series [1], the “ED50 for prevention of exploratory loss” value is 1.4 mg/kg. For the same molecule, in series [2], the “ED50 for prevention of ptosis” value is 1.3 mg/kg. The matching figures for “(±)6-(or: -9-)chloro-1,2,3,4,4a,10,10a-octahydro-5,10-o-benzenobenz[g]isoquinoline hydrochloride [R=H, R1=H, R2=H, R3=6 or 9-Cl, R4=H]”: 2.5 mg/kg and 2.2 mg/kg. The matching figures for “(±)7-(or: -8-)-chloro-1,2,3,4,4a,5,10,10a-octahydro-5,10-o-benzenobenz[g]isoquinoline hydrochloride [R=H, R1=H, R2=H, R3=7 or 8-Cl, R4=H]”: 1.7 mg/kg and 1.4 mg/kg. “(±)7-(or: -8-)-fluoro-1,2,3,4,4a,5,10,10a-octahydro-5,10-o-benzenobenz[g]isoquinoline hydrochloride [R=H, R1=H, R2=H, R3=7 or 8-F, R4=H]”: the “ED50 for prevention of exploratory loss” value in series [1] was 1.7 mg/kg. The “ED50 for prevention of ptosis” value in series [2] is listed as “.58 mg/kg”. The like results for “(±)7-(or: -8-)chloro-1,2,3,4,4a,5,10,10a-octahydro-2-methyl-5,10-o-benzenobenz[g]isoquinoline hydrochloride hemihydrate [R=CH3, R1=H, R2=H, R3=7 or 8-Cl, R4=H]” were, in that order, 4.5 mg/kg and 3.4 mg/kg. For the molecule “(±)7-(or: -8-)fluoro-1,2,3,4,4a,5,10,10a-octahydro-2-methyl-5,10-o-benzenobenz[g]isoquinoline hydrochloride [R=CH3, R1=H, R2=H, R3=7 or 8-F, R4=H]”, the “ED50 for prevention of exploratory loss” value in series [1] is listed as 2.7 mg/kg. Further, the “ED50 for prevention of ptosis” value in series [2] is listed as 2.0 mg/kg.
